Source: patent US7795288B2, “Thiazole and pyrazole derivatives as Flt-3 kinase inhibitors” (Novartis AG, priority 2003, dated 2010)

Each compound was assayed against T1, cytoplasmic kinase domain of human Flt-3 (GST-Flt-3) (Homo sapiens, UniProt P36888) (assay: Inhibition of the protein tyrosine kinase activity of Flt-3 (GST-Flt-3, 33P incorporation into poly(Glu, Tyr))). Details: purified GST-Flt-3, 8.0 μM ATP, poly(Glu, Tyr) 4:1, 20 min at ambient temperature.
T1 construct: expressing the amino acid region amino acids 563-993 of the cytoplasmic kinase domain of human Flt-3; made in house; host or cells: Sf9 insect cells (baculovirus, pFbacG01 donor vector)
T1 sequence (P36888 563-993): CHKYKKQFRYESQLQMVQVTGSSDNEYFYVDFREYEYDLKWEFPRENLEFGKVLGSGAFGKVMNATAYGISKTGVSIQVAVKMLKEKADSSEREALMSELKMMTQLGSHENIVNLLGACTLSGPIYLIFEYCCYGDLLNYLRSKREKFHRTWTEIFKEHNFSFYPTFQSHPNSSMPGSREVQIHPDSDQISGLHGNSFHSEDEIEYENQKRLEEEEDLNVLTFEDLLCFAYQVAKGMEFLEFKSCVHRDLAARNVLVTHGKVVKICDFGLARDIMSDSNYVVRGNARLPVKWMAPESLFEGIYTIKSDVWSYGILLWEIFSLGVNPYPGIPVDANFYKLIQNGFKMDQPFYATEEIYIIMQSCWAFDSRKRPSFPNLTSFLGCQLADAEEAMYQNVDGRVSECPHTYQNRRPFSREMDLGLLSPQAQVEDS
Format: biochemical
Description: The baculovirus donor vector pFbacG01 (GIBCO) is used to generate a recombinant baculovirus expressing the amino acid region amino acids 563-993 of the cytoplasmic kinase domain of human Flt-3. The coding sequence for the cytoplasmic domain of Flt-3 is amplified by PCR from human c-DNA libraries (Clontech). The amplified DNA fragments and the pFbacG01 vector are made compatible for ligation by digestion with BamH1 and HindIII. Ligation of these DNA fragments results in the baculovirus donor plasmid Flt-3 (1.1). The production of the viruses, the expression of proteins in Sf9 cells and the purification of the GST-fused proteins are performed as follows: Production of virus: Transfer vector (pFbacG01-Flt-3) containing the Flt-3 kinase domain is transfected into the DH10Bac cell line (GIBCO) and the transfected cells are plated on selective agar plates. Colonies without insertion of the fusion sequence into the viral genome (carried by the bacteria) are blue. Single white colonies are picked and viral DNA (bacmid) is isolated from the bacteria by standard plasmid purification procedures. Sf9 or Sf21 cells (American Type Culture Collection) are then transfected in flasks with the viral DNA using Cellfectin reagent. Protein expression in Sf9 cells: Virus containing media is collected from the transfected cell culture and used for infection to increase its titre. Virus containing media obtained after two rounds of infection is used for large-scale protein expression. For large-scale protein expression 100 cm^2 round tissue culture plates are seeded with 5×10^7 cells/plate and infected with 1 mL of virus-containing media (approx. 5 MOIs). After 3 days the cells are scraped off the plate and centrifuged at 500 rpm for 5 min. Cell pellets from 10-20, 100 cm^2 plates are resuspended in 50 mL of ice-cold lysis buffer (25 mM Tris-HCl, pH 7.5, 2 mM EDTA, 1% NP-40, 1 mM DTT, 1 mM PMSF). The cells are stirred on ice for 15 min and then centrifuged at 5000 rpms for 20 min. Purification of GST-tagged proteins: The centrifuged cell lysate is loaded onto a 2 mL glutathione-sepharose column (Pharmacia) and washed three times with 10 mL of 25 mM Tris-HCl, pH 7.5, 2 mM EDTA, 1 mM DTT, 200 mM NaCl. The GST-tagged protein is then eluted by 10 applications (1 mL each) of 25 mM Tris-HCl, pH 7.5, 10 mM reduced-glutathione, 100 mM NaCl, 1 mM DTT, 10% Glycerol and stored at −70° C. Measurement of enzyme activity: Tyrosine protein kinase assays with purified GST-Flt-3 are carried out in a final volume of 30 μL containing 200-1800 ng of enzyme protein (depending on the specific activity), 20 mM Tris-HCl, pH 7.6, 3 mM MnCl2, 3 mM MgCl2, 1 mM DTT, 10 μM Na3VO4, 3 μg/mL poly(Glu, Tyr) 4:1, 1% DMSO, 8.0 μM ATP and 0.1 μCi [γ^33 P] ATP. The activity is assayed in the presence or absence of inhibitors, by measuring the incorporation of ^33P from [γ^33P] ATP into the poly(Glu, Tyr) substrate. The assay (30 μL) is carried out in 96-well plates at ambient temperature for 20 min and terminated by the addition of 20 μL of 125 mM EDTA. Subsequently, 40 μL of the reaction mixture is transferred onto Immobilon-PVDF membrane (Millipore, Bedford, Mass., USA) previously soaked for 5 min with methanol, rinsed with water, then soaked for 5 min with 0.5% H3PO4 and mounted on vacuum manifold with disconnected vacuum source. After spotting all samples, vacuum is connected and each well rinsed with 200 μL 0.5% H3PO4. Membranes are removed and washed 4× on a shaker with 1.0% H3PO4, once with ethanol. Membranes are counted after drying at ambient temperature, mounting in Packard TopCount 96-well frame, and addition of 10 μL/well of Microscint™ (Packard). IC50 values are calculated by linear regression analysis of the percentage inhibition of each compound in duplicate, at four concentrations (usually 0.01, 0.1, 1 and 10 μM). One unit of protein kinase activity is defined as 1 nmole of ^33P transferred from [γ^33P] ATP to the substrate protein per minute per mg of protein at 37° C. […]

IC50 [nM]	Structure (SMILES)
41	c1ccc(-c2cnc(Nc3ccc(OCCN4CCCC4)cc3)s2)cc1 [Example 1, (5-Phenyl-thiazol-2-yl)-[4-(2-pyrrolidin-1-yl-ethoxy)-phenyl]-amine]
24	COc1ccc(-c2cnc(Nc3ccc(N4CCN(C)CC4)cc3)s2)cc1 [Example 5, [5-(4-Methoxy-phenyl)-thiazol-2-yl]-[4-(4-methyl-piperazin-1-yl)-phenyl]-amine]
35	Oc1ccc(-c2cnc(Nc3ccc(OCCN4CCCC4)cc3)s2)cc1 [Example 7, 4-{2-[4-(2-Pyrrolidin-1-yl-ethoxy)-phenylamino]-thiazol-5-yl}-phenol]
34	Oc1ccc(Nc2ncc(-c3ccsc3)s2)cc1 [Example 12, 4-(5-Thiophen-3-yl-thiazol-2-yl-amino)-phenol]
22	c1cc(-c2cnc(Nc3ccc(OCCN4CCCCC4)cc3)s2)cs1 [Example 16, [4-(2-Piperidin-1-yl-ethoxy)-phenyl]-(5-thiophen-3-yl-thiazol-2-yl)-amine]
82	c1cc(-c2cc(Nc3ccc(OCCN4CCCC4)cc3)n[nH]2)cs1 [Example 34, [4-(2-Pyrrolidin-1-yl-ethoxy)-phenyl]-(5-thiophen-3-yl-1H-pyrazol-3-yl)-amine]
31	CCN(CC)CCOc1ccc(Nc2cc(-c3ccsc3)[nH]n2)cc1 [Example 37, [4-(2-Diethylamino-ethoxy)-phenyl]-(5-thiophen-3-yl-1H-pyrazol-3-yl)-amine]
